Experimental data as given in patent US20250195521A1 (Revolution Medicines, Inc., priority 2020, published 2025).

Legend:
NCI-H358 (K-Ras G12C) = assay: CellTiter-Glo cell viability assay, NCI-H358; type: cell-based, human; conditions: Homo sapiens, NCI-H358, 120 h, 5-day treatment; read-out: H358 Cell Viability assay data (K-Ras G12C, IC50)
Procedure, shortened: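 Viability is measured as ATP-dependent luminescence (CellTiter-Glo) five days into compound treatment. Responses are normalized to vehicle (DMSO) wells and fitted by four-parameter logistic regression.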

[1] = biological target: NRAS Q61K binding to BRAF RBD (Homo sapiens (Human), UniProt P01111+P62937, Q61K); assay: Ras-Raf disruption/FRET/MOA assay, NRAS Q61K; type: biochemical
NRAS Q61K binding to BRAF RBD, sequence (P01111 whole entry Q61K, the tested form may be a part): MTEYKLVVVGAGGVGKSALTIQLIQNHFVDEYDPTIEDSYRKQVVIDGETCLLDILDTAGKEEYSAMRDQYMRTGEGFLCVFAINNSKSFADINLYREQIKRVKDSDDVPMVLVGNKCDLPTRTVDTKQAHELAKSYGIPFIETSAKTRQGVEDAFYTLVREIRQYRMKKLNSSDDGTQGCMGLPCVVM
NRAS Q61K binding to BRAF RBD, sequence (P62937 whole entry, the tested form may be a part): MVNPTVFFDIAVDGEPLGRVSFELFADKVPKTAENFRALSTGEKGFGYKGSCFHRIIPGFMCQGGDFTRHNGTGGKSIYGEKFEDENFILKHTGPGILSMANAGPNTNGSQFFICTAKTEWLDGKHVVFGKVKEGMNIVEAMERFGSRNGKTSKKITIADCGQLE
Excerpt: (§1) Disruption of B-Raf Ras-binding Domain (BRAF^RBD) Interaction with K-Ras by Compounds of the Invention (also called a FRET assay or an MOA assay)
(§2) Note—The following protocol describes a procedure for monitoring disruption of K-Ras G12C(GMP-PNP) binding to BRAF^RBD by a compound of the invention. This protocol may also be executed substituting other Ras proteins or nucleotides.
(§3) The purpose of this biochemical assay was to measure the ability of test compounds to facilitate ternary complex formation between a nucleotide-loaded K-Ras isoform and Cyclophilin A; the resulting ternary complex disrupts binding to a BRAF^RBD construct, inhibiting K-Ras signaling through a RAF effector. Data is reported as IC50 values.
(§4) In assay buffer containing 25 mM HEPES pH 7.3, 0.002% Tween20, 0.1% BSA, 100 mM NaCl and 5 mM MgCl2, tagless Cyclophilin A, His6-K-Ras-GMPPNP, and GST-BRAF^RBD were combined in a 384-well assay plate at final concentrations of 25 μM, 12.5 nM and 50 nM, respectively. Compound was present in plate wells as a 10-point 3-fold dilution series starting at a final concentration of 30 μM. After incubation at 25° C. for 3 hours, a mixture of Anti-His Eu—W1024 and anti-GST allophycocyanin was then added to assay sample wells at final concentrations of 10 nM and 50 nM, respectively, and the reaction incubated for an additional 1.5 hours. […] Compounds that facilitate disruption of a K-Ras: RAF complex were identified as those eliciting a decrease in the TR-FRET ratio relative to DMSO control wells.

[2] = system: K-Ras G12C (NCI-H358 cells); assay: Potency assay: pERK in NCI-H358 cells; type: cell-based, human; conditions: Homo sapiens; NCI-H358 cells, 4 hours; read-out: pERK EC50 (H358 KRAS G12C)
Procedure, shortened: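 Cells plated the day before were exposed for 4 h at 37° C, 5% CO2 to a 10-point, 3-fold DMSO dilution series (10 mM top stock), in duplicate. Phospho-ERK was read by AlphaLISA SureFire Ultra or by In-Cell Western with DRAQ5 DNA stain, and IC50 came from a 4-parameter sigmoidal fit.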

[3] = biological target: KRAS G13D binding to BRAF RBD (Homo sapiens (Human), UniProt P01116+P62937, G13D); assay: Ras-Raf disruption/FRET/MOA assay, KRAS G13D; type: biochemical
KRAS G13D binding to BRAF RBD, sequence (P01116 other isoform, or with tags, fused parts or gaps G13D): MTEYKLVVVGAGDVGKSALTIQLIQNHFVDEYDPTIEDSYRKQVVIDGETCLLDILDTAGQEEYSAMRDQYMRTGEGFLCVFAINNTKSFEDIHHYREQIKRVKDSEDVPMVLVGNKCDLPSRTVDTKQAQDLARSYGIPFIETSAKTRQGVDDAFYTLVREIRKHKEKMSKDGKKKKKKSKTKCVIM
KRAS G13D binding to BRAF RBD, sequence (P62937 whole entry): as the sequence (P62937 whole entry, the tested form may be a part) above
Procedure, shortened: (§5)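 TR-FRET ratio drop relative to DMSO wells marks disruption of the Ras–RAF complex, reported as IC50. Compounds promote a Ras(nucleotide)–cyclophilin A ternary complex that blocks BRAF RBD binding; dosing was 10 points, 3-fold, top 30 μM final, 3 h at 25° C before detection.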

[4] = biological target: KRAS G12S binding to BRAF RBD (Homo sapiens (Human), UniProt P01116+P62937, G12S); assay: Ras-Raf disruption/FRET/MOA assay, KRAS G12S; type: biochemical
KRAS G12S binding to BRAF RBD, sequence (P01116 other isoform, or with tags, fused parts or gaps G12S): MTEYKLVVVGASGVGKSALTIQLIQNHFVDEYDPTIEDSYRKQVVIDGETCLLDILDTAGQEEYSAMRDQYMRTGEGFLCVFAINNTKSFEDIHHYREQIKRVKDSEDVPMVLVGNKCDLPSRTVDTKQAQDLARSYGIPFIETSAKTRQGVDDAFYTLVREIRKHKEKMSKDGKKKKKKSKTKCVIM
KRAS G12S binding to BRAF RBD, sequence (P62937 whole entry): as the sequence (P62937 whole entry, the tested form may be a part) above
Procedure, shortened: as §5

[5] = biological target: NRAS G12C binding to BRAF RBD (Homo sapiens (Human), UniProt P01111+P62937, G12C); assay: Ras-Raf disruption/FRET/MOA assay, NRAS G12C; type: biochemical
NRAS G12C binding to BRAF RBD, sequence (P01111 whole entry G12C): as the sequence (P01111 whole entry Q61K, the tested form may be a part) above, with G12C, K61Q counted along it
NRAS G12C binding to BRAF RBD, sequence (P62937 whole entry): as the sequence (P62937 whole entry, the tested form may be a part) above
Procedure, shortened: as §5

[6] = biological target: NRAS WT binding to BRAF RBD (Homo sapiens (Human), UniProt P01111+P62937); assay: Ras-Raf disruption/FRET/MOA assay, NRAS WT; type: biochemical
NRAS WT binding to BRAF RBD, sequence (P01111 whole entry): as the sequence (P01111 whole entry Q61K, the tested form may be a part) above, with K61Q counted along it
NRAS WT binding to BRAF RBD, sequence (P62937 whole entry): as the sequence (P62937 whole entry, the tested form may be a part) above
Excerpt: as §1, §2, §3, §4

[7] = biological target: K-Ras G12C(GMP-PNP) binding to BRAF RBD (Homo sapiens (Human), UniProt P01116+P62937, G12C); assay: Disruption of BRAF RBD interaction with K-Ras (FRET / MOA assay), K-Ras G12C; type: biochemical; conditions: read-out: KRAS G12C FRET IC50
K-Ras G12C(GMP-PNP) binding to BRAF RBD, sequence (P01116 other isoform, or with tags, fused parts or gaps G12C): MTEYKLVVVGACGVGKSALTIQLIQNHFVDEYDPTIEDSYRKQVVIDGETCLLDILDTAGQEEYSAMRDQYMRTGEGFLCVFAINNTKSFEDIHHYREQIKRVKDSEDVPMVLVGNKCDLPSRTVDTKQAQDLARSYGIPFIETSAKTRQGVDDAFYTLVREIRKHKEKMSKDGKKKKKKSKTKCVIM
K-Ras G12C(GMP-PNP) binding to BRAF RBD, sequence (P62937 whole entry): as the sequence (P62937 whole entry, the tested form may be a part) above
Procedure, shortened: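 TR-FRET readout: after 3 h compound incubation at 25 °C, anti-His Eu and anti-GST allophycocyanin (10 and 50 nM final) added for a further 1.5 h. Dilution series was 10-point, 3-fold, top 30 μM final. Ras–cyclophilin A ternary complex formation blocks the BRAF RBD interaction; IC50 derived from reduced FRET ratio relative to DMSO.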

[8] = biological target: KRAS WT binding to BRAF RBD (Homo sapiens (Human), UniProt P01116+P62937); assay: Ras-Raf disruption/FRET/MOA assay, KRAS WT; type: biochemical
KRAS WT binding to BRAF RBD, sequence (P01116 other isoform, or with tags, fused parts or gaps): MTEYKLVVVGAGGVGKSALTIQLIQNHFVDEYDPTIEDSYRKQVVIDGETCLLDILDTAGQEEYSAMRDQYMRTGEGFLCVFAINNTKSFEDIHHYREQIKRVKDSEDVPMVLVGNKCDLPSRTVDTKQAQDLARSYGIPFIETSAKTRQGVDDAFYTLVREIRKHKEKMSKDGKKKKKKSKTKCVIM
KRAS WT binding to BRAF RBD, sequence (P62937 whole entry): as the sequence (P62937 whole entry, the tested form may be a part) above
Procedure, shortened: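 Compounds (top 30 μM, 3-fold, 10 points) promote Cyclophilin A (25 μM) ternary complex with His6-Ras-GMPPNP (12.5 nM), disrupting GST-BRAF RBD (50 nM) binding; 3 h, 25°C, 25 mM HEPES pH 7.3, 100 mM NaCl, 5 mM MgCl2. Detection reagents (Eu anti-His 10 nM, APC anti-GST 50 nM) added for 1.5 h; IC50 reported.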

[9] = biological target: KRAS G12V binding to BRAF RBD (Homo sapiens (Human), UniProt P01116+P62937, G12V); assay: Ras-Raf disruption/FRET/MOA assay, KRAS G12V; type: biochemical; conditions: read-out: KRAS G12V FRET IC50
KRAS G12V binding to BRAF RBD, sequence (P01116 other isoform, or with tags, fused parts or gaps G12V): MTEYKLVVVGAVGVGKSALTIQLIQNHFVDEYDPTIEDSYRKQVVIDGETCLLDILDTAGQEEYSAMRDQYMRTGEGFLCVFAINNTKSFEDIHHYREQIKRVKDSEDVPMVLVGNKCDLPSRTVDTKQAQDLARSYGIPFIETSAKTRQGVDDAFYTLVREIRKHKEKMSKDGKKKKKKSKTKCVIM
KRAS G12V binding to BRAF RBD, sequence (P62937 whole entry): as the sequence (P62937 whole entry, the tested form may be a part) above
Excerpt: as §2, §3
as §4, with “Compound” for “In assay buffer containing 25 mM HEPES pH 7.3, 0.002% Tween20, 0.1% BSA, 100 mM NaCl and 5 mM MgCl2, tagless Cyclophilin A, His6-K-Ras-GMPPNP, and GST-BRAF^RBD were combined in a 384-well assay plate at final concentrations of 25 μM, 12.5 nM and 50 nM, respectively. Compound”

[10] = biological target: NRAS Q61R binding to BRAF RBD (Homo sapiens (Human), UniProt P01111+P62937, Q61R); assay: Ras-Raf disruption/FRET/MOA assay, NRAS Q61R; type: biochemical
NRAS Q61R binding to BRAF RBD, sequence (P01111 whole entry Q61R): as the sequence (P01111 whole entry Q61K, the tested form may be a part) above, with K61R counted along it
NRAS Q61R binding to BRAF RBD, sequence (P62937 whole entry): as the sequence (P62937 whole entry, the tested form may be a part) above
Excerpt: as §1, §2, §3, §4

[11] = biological target: KRAS Q61H binding to BRAF RBD (Homo sapiens (Human), UniProt P01116+P62937, Q61H); assay: Ras-Raf disruption/FRET/MOA assay, KRAS Q61H; type: biochemical
KRAS Q61H binding to BRAF RBD, sequence (P01116 other isoform, or with tags, fused parts or gaps Q61H): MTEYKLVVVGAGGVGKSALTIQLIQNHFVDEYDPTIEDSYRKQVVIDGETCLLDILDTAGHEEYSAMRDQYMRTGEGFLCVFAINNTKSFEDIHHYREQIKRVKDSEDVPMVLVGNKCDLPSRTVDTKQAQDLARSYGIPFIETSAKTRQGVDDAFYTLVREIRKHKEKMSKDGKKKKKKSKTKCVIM
KRAS Q61H binding to BRAF RBD, sequence (P62937 whole entry): as the sequence (P62937 whole entry, the tested form may be a part) above
Excerpt: as §1, §2, §3, §4

NRAS Q61K = NRAS Q61K (Homo sapiens (Human), UniProt P01111+P62937, Q61K); assay: Ras-Raf disruption/FRET/MOA assay, NRAS Q61K; type: biochemical; conditions: read-out: NRAS Q61K FRET data IC50
NRAS Q61K, sequence (P01111 whole entry Q61K, the tested form may be a part): as the sequence (P01111 whole entry Q61K, the tested form may be a part) above
NRAS Q61K, sequence (P62937 whole entry, the tested form may be a part): as the sequence (P62937 whole entry, the tested form may be a part) above
Excerpt: (§6) Disruption of B-Raf Ras-Binding Domain (BRAF^RBD) Interaction with K-Ras by Compounds of the Invention (Also Called a FRET Assay or an MOA Assay)
(§7) Note—The following protocol describes a procedure for monitoring disruption of K-Ras G12C (GMP-PNP) binding to BRAF^RBD by a compound of the invention. This protocol may also be executed substituting other Ras proteins or nucleotides, such as K-Ras G12D and K-Ras G13D.
as §3
as §4, with “12.5 nM,” for “12.5 nM”, “of anti-His” for “of Anti-His”

NRAS Q61R = NRAS Q61R (Homo sapiens (Human), UniProt P01111+P62937, Q61R); assay: Ras-Raf disruption/FRET/MOA assay, NRAS Q61R; type: biochemical; conditions: read-out: NRAS Q61R FRET data IC50
NRAS Q61R, sequence (P01111 whole entry Q61R): as the sequence (P01111 whole entry Q61K, the tested form may be a part) above, with K61R counted along it
NRAS Q61R, sequence (P62937 whole entry): as the sequence (P62937 whole entry, the tested form may be a part) above
Excerpt: as §6, §7, §3
as §4, with “12.5 nM,” for “12.5 nM”, “of anti-His” for “of Anti-His”

NRAS WT = NRAS WT (Homo sapiens (Human), UniProt P01111+P62937); assay: Ras-Raf disruption/FRET/MOA assay, NRAS WT; type: biochemical; conditions: read-out: NRAS WT FRET IC50
NRAS WT, sequence (P01111 whole entry): as the sequence (P01111 whole entry Q61K, the tested form may be a part) above, with K61Q counted along it
NRAS WT, sequence (P62937 whole entry): as the sequence (P62937 whole entry, the tested form may be a part) above
Excerpt: as §6, §7, §3
as §4, with “12.5 nM,” for “12.5 nM”, “of anti-His” for “of Anti-His”

C=CC(=O)N(C)CC1CCN(C(=O)N(C)[C@H](C(=O)N[C@H]2Cc3nc(cs3)-c3ccc4c(c3)c(c(-c3cccnc3[C@H](C)OC)n4CC)CC(C)(C)COC(=O)[C@@H]3CCCN(N3)C2=O)C(C)C)CC1 (atropisomer, axis not shown) [Compound A629]
IC50 (NCI-H358 (K-Ras G12C)): < 10 nM
IC50 [1]: 10 to 100 nM
EC50 [2]: < 5000 nM
IC50 [3]: 100 to 1000 nM
IC50 [4]: 10 to 100 nM
IC50 [5]: 10 to 100 nM
IC50 [6]: 10 to 100 nM
IC50 [7]: 10 to 100 nM
IC50 [8]: 10 to 100 nM
IC50 [9]: 10 to 100 nM
IC50 [10]: 10 to 100 nM
IC50 [11]: 10 to 100 nM

CCn1c(-c2cccnc2[C@H](C)OC)c2c3cc(ccc31)-c1cc(O)cc(c1)C[C@H](NC(=O)[C@H](C(C)C)N(C)C(=O)[C@H]1CCCN(C(=O)[C@@H]3CN3)C1)C(=O)N1CCC[C@H](N1)C(=O)OCC(C)(C)C2 (atropisomer, axis not shown) [Example 238]
IC50 (NRAS Q61K): 100 to 1000 nM
IC50 (NRAS Q61R): 100 to 1000 nM
IC50 (NRAS WT): 10 to 100 nM
